Columns and labels:
[1] = Cytotoxicity against mouse NIH/3T3 cells assessed as cell viability incubated for 72 hrs by MTT assay; type: toxicity, cell-based, NIH3T3
[2] = Cytotoxicity against human HUVEC cells assessed as cell viability incubated for 72 hrs by MTT assay; type: toxicity, cell-based
BXPC-3 = test: cells; conditions: Homo sapiens, BXPC-3, 72 h
Description: Antiproliferative activity against human BXPC-3 cells assessed as cell viability incubated for 72 hrs by MTT assay

MDA-MB-231 = test: cells; conditions: Homo sapiens, MDA-MB-231, 72 h
Description: Antiproliferative activity against human MDA-MB-231 cells assessed as cell viability incubated for 72 hrs by MTT assay

Row | SMILES | IC50 at 72 h [1] | IC50 at 72 h [2] | IC50 (BXPC-3) | IC50 (MDA-MB-231)
1 | COC(=O)c1ccc2c(c1)NC(=O)/C2=C(\Nc1ccc(N(C)C(=O)CN2CCOCC2)cc1)c1ccccc1 | > 10 µM | > 10 µM | > 10 µM | > 10 µM
2 | CN(C(=O)CN1CCN(CCO)CC1)c1ccc(N/C(=C2\C(=O)Nc3cc(Cl)ccc32)c2ccccc2)cc1 | 2.2 µM | 1.65 µM | 1.54 µM | 1.35 µM
3 | COC(=O)c1ccc2c(c1)NC(=O)/C2=C(\Nc1ccc(N(C)C(=O)[C@@H](C)N2CCN(C)CC2)cc1)c1ccccc1 | 3.75 µM | 1.36 µM | – | –
4 | CN1CCN(CC(=O)N(C)c2ccc(N/C(=C3\C(=O)Nc4cc(Cl)ccc43)c3ccccc3)cc2)CC1 | 3.11 µM | 1.8 µM | 2.98 µM | 4.54 µM
5 | COC(=O)c1ccc2c(c1)NC(=O)/C2=C(\Nc1ccc(N(C)C(=O)CN2CCC(N(C)C)CC2)cc1)c1ccccc1 | 3.51 µM | 2.97 µM | 2.56 µM | 6.34 µM
6 | CN(C(=O)CN1CCOCC1)c1ccc(N/C(=C2\C(=O)Nc3cc(Br)ccc32)c2ccccc2)cc1 | > 10 µM | > 10 µM | > 10 µM | > 10 µM
7 | COC(=O)c1ccc2c(c1)NC(=O)/C2=C(\Nc1ccc(N(C)C(=O)[C@H](C)N2CCN(C)CC2)cc1)c1ccccc1 | 1.17 µM | 1.65 µM | – | –
8 | COC(=O)c1ccc2c(c1)NC(=O)/C2=C(\Nc1ccc(N(C)C(=O)CN2CCCN(C)CC2)cc1)c1ccccc1 | 3.82 µM | 2.91 µM | 3.73 µM | 7.83 µM
9 | CCN1CCN(CC(=O)N(C)c2ccc(N/C(=C3\C(=O)Nc4cc(Br)ccc43)c3ccccc3)cc2)CC1 | 3.2 µM | 1.57 µM | 3.57 µM | 3.91 µM
10 | CN(C(=O)CN1CCN(CCO)CC1)c1ccc(N/C(=C2\C(=O)Nc3cc(Br)ccc32)c2ccccc2)cc1 | 2.95 µM | 2.49 µM | 3.57 µM | 3.21 µM
11 | CN(C(=O)CN1CCC(N(C)C)CC1)c1ccc(N/C(=C2\C(=O)Nc3cc(Br)ccc32)c2ccccc2)cc1 | 2.31 µM | 1.94 µM | 3.02 µM | 2.97 µM
12 | CN1CCCN(CC(=O)N(C)c2ccc(N/C(=C3\C(=O)Nc4cc(Cl)ccc43)c3ccccc3)cc2)CC1 | 4.52 µM | 4.98 µM | 3.14 µM | 3.87 µM
13 | CN(C)CCN(C)CC(=O)N(C)c1ccc(N/C(=C2\C(=O)Nc3cc(Br)ccc32)c2ccccc2)cc1 | 5.89 µM | 4.71 µM | 4.22 µM | 4.96 µM
14 | CN1CCCN(CC(=O)N(C)c2ccc(N/C(=C3\C(=O)Nc4cc(Br)ccc43)c3ccccc3)cc2)CC1 | 5.98 µM | 3.19 µM | 2.15 µM | 3.29 µM
15 | CCN1CCN(CC(=O)N(C)c2ccc(N/C(=C3\C(=O)Nc4cc(Cl)ccc43)c3ccccc3)cc2)CC1 | 1.95 µM | 1.85 µM | 1.78 µM | 3.19 µM
16 | CCN1CCN(CC(=O)N(C)c2ccc(N/C(=C3\C(=O)Nc4cc(C(=O)OC)ccc43)c3ccccc3)cc2)CC1 | 3.44 µM | 2.72 µM | 2.31 µM | 5.98 µM
17 | COC(=O)c1ccc2c(c1)NC(=O)/C2=C(\Nc1ccc(N(C)C(=O)CN(C)CCN(C)C)cc1)c1ccccc1 | 3.57 µM | 2.97 µM | 6.01 µM | > 10 µM
18 | CC(C(=O)N(C)c1ccc(N/C(=C2\C(=O)Nc3cc(Cl)ccc32)c2ccccc2)cc1)N1CCSCC1 (racemic) | > 10 µM | > 10 µM | > 10 µM | > 10 µM
19 | CC(C(=O)N(C)c1ccc(N/C(=C2\C(=O)Nc3cc(Cl)ccc32)c2ccccc2)cc1)N1CCCN(C)CC1 (racemic) | 2.2 µM | 0.69 µM | 1.74 µM | 2.04 µM

Source: ChEMBL document CHEMBL6087458, “The Discovery of a Novel AXL/Triple Angiokinase Inhibitor Based on 6-Chloro-Substituted Indolinone and Side Chain Methyl Substitution Inhibiting Pancreatic Cancer Growth and Metastasis” (J Med Chem, 2025)
